In the test the test system is eggs. The test can be described thus: Oxygen consumption by eggs. Format: cell-based, sea urchin. From the text: First, both ovothiol and NAD(P)H are intracellular metabolites, whereas ovoperoxidase is extracellular during the respiratory burst. […] Second, H2 02 is not released stoichiometrically by the ovoperoxidase-oxidase, so this cannot account for the significant concentrations of H2 02 previously detected at fertilization. Third, aminotriazole inhibits both the NAD(P)H oxidase and peroxidase activities of ovoperoxidase, yet has no effect on oxygen consumption by eggs.

The values that follow come from patent US4898878A, “Antioxidant thiohistidine compounds” (priority 1987, dated 1990).

Take `Nc1nc[nH]n1` [aminotriazole]: the “effect on oxygen consumption by eggs” value is “no effect”.
